Tests used:
GCE62, SF188 and KNS42 = assay: Cell proliferation of three cell lines treated with TTFields and IAA94; type: cell-based, human; conditions: TTFields and IAA94 compared to TTFields alone, FIG. 6
[1] = test system: human glioblastoma primary culture; assay: Cell number after TTFields plus CLIC1 inhibitor IAA94; type: cell-based; conditions: TTFields plus IAA94 vs TTFields alone or IAA94 alone, FIG. 12
From the text: Thus, the combination therapy is a very effective treatment.

pGBM = assay: Invasion / migration capacity of pGBM with IAA94; type: cell-based, human; conditions: FIG. 3
From the text: (§1) The cell count in different cell lines (SF188 and KNS42) with and without IAA94.
(§2) Similar efficacy was observed when using TTFields as a treatment for pGBM (FIG. 4).

[2] = test system: pGBM cell lines (SF188 and KNS42); assay: Cell count of pGBM cell lines with and without IAA94; type: cell-based, human; conditions: 100 uM IAA94, FIG. 3
From the text: as §1, §2

`CC1(C2CCCC2)Cc2cc(OCC(=O)O)c(Cl)c(Cl)c2C1=O` (centres unmarked) [IAA94] was tested, and the “cell proliferation, combination with TTFields” value (GCE62, SF188 and KNS42) was “significantly reduced cell proliferation compared to TTFields alone”, the “cell number, combination with TTFields” value [1] was “inhibits cell proliferation and/or kills more cells that TTFields alone or IAA94 alone” and the invasive capacity (pGBM; 100 uM IAA94, pGBM) was “reduces invasive capacity”. The “capacity of pGBM to proliferate, invade and migrate” value (pGBM; inhibition of CLIC1 and CLIC4 by IAA94) was “reduced the capacity of pGBM to proliferate, invade and migrate” and the overall cell count [2] was “reduces overall cell count”.

From patent US20230381503A1, “Compositions And Methods For Treating With A Combination Of Alternating Electric Fields And Ion Channel Inhibitors” (NOVOCURE GMBH, priority 2022, published 2023)
